Reference: patent US20140107109A1, “AMINO-DIHYDROTHIAZINE AND AMINO-DIOXIDO DIHYDROTHIAZINE COMPOUNDS AS BETA-SECRETASE ANTAGONISTS AND METHODS OF USE” (Amgen Inc., priority 2012, published 2014)
Read-outs that look alike come from different tables or passages of the source.

Experiments:
[1] = target: Beta Secretase enzyme (BACE1) (Homo sapiens, UniProt P56817); experiment: In vitro enzymatic BACE FRET assay; type: biochemical; details: read-out: BACE1 FRET assay IC50
In short: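 Readout: dequenched fluorescence (ex 488 nm/[…]) after neutralizing with Tris buffer. Reactions, begun by adding 50 nM quenched peptide substrate spanning the BACE cleavage site, were incubated one hour at pH 4.2 in 0.05 M acetate with 100 uM genapol and 10% final DMSO.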

[2] = tested on: Aβ40 in conditioned medium of cells stably expressing Amyloid Precursor Protein (APP); experiment: In vitro BACE cell-based assay (HEK cell assay), Aβ40 sandwich ELISA; details: Homo sapiens, HEK293
In short: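 Aβ40 in conditioned medium was quantified by time-resolved fluorescence sandwich ELISA (pAb40 capture 3 h at 4 °C, biotin-6E10 detection 2 h at 4 °C) after 24 h compound exposure of APP-expressing cells. Doses spanned 10 points from 100 μM or 10 μM top, 0.1% DMSO; IC50 was derived from percent of control.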

[3] = target: T1, Cathepsin D (Cat D) (Homo sapiens, UniProt P07339); experiment: In vitro enzymatic Cathepsin D (Cat D) FRET assay; type: biochemical; details: read-out: CatD IC50
T1 construct: Recombinant Cat D was expressed in CHO cells; made in house; host or cells: CHO cells
In short: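 FRET read-out: a fluorophore/quencher-labelled peptide substrate is cleaved by 9 nM Cat D (recombinant, CHO-expressed) following a one-hour preincubation with inhibitor dilutions in DMSO. Tris buffer added to neutralize pH ends the reaction before fluorescence measurement.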

Chain of Beta Secretase enzyme (BACE1) (P56817 46-501): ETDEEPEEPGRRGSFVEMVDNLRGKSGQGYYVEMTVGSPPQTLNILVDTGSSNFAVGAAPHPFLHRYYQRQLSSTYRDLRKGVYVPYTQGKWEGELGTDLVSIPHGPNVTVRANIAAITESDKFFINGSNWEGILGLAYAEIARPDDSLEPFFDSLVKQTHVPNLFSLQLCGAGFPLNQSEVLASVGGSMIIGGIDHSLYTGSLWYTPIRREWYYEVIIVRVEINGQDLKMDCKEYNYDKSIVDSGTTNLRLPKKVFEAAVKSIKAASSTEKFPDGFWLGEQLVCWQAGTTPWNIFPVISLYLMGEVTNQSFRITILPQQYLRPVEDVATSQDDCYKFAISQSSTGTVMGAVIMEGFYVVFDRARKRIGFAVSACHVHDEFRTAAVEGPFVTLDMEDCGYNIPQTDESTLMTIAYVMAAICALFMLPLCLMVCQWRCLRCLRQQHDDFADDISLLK
T1 sequence (P07339 65-412, species assumed): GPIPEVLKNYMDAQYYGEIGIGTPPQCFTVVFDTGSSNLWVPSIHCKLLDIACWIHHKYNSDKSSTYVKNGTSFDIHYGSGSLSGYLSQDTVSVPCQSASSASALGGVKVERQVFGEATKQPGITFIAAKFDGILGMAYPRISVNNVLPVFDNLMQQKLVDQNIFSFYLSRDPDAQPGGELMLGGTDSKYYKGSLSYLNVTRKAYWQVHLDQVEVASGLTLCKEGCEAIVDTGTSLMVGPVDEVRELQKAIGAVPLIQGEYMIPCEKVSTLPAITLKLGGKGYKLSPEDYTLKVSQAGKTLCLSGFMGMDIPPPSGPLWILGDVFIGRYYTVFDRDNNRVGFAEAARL

SMILES | IC50 [1] | IC50 ([2]; Aβ40, 24 h incubation) | IC50 [3] | IC50 ([1]; average IC50, enzyme assay) | IC50 ([2]; average IC50, cell assay) | IC50 [2]
CCc1cccc(Oc2ccc(F)c([C@]3(C)CS(=O)(=O)C(C)(C)C(N)=N3)c2)c1 [Example 99, (R)-5-amino-3-(5-(3-ethylphenoxy)-2-fluorophenyl)-3,6,6-trimethyl-3,6-dihydro-2H-1,4-thiazine 1,1-dioxide] | 1.43 µM | 6.68 µM | 86.8 µM |  |  | 
CC1(C)C(N)=N[C@](C)(c2cc(Oc3ccc4ccccc4c3)ccc2F)CS1(=O)=O [Example 102, (R)-5-amino-3-(2-fluoro-5-(naphthalen-2-yloxy)phenyl)-3,6,6-trimethyl-3,6-dihydro-2H-1,4-thiazine 1,1-dioxide] | 2.35 µM | 8.04 µM | 51.2 µM |  |  | 
CC1(C)C(N)=N[C@](C)(c2cc(NCc3nn(CC(F)(F)F)cc3Cl)ccc2F)CS1(=O)=O [Example 108, (R)-5-amino-3-(5-(((4-chloro-1-(2,2,2-trifluoroethyl)-1H-pyrazol-3-yl)methyl)amino)-2-fluorophenyl)-3,6,6-trimethyl-3,6-dihydro-2H-1,4-thiazine 1,1-dioxide] |  |  | 49.8 µM | 0.0452 µM | 0.161 µM | 
Cc1cnc(C(=O)Nc2ccc(F)c([C@]3(C)CS(=O)(=O)C(C)(C)C(N)=N3)c2)cn1 [Example 110, (R)—N-(3-(5-amino-3,6,6-trimethyl-1,1-dioxido-3,6-dihydro-2H-1,4-thiazin-3-yl)-4-fluorophenyl)-5-methylpyrazine-2-carboxamide] | 0.0202 µM |  | 1840 µM |  |  | 0.0144 µM
Cc1cnc(C(=O)Nc2ccc(F)c([C@]3(C)CS(=O)(=O)C(C)(C)C(N)=N3)c2)c(C)n1 [Example 111, ®-N-(3-(5-amino-3,6,6-trimethyl-1,1-dioxido-3,6-dihydro-2H-1,4-thiazin-3-yl)-4-fluorophenyl)-3,5-dimethylpyrazine-2-carboxamide] | 0.0182 µM |  | > 400 µM |  |  | 0.0244 µM
C[C@@]1(c2cc(Nc3nccc4cc(Cl)cnc34)ccc2F)CS(=O)(=O)C2(CCC2)C(N)=N1 [Example 116, (R)-9-amino-7-(5-((3-chloro-1,7-naphthyridin-8-yl)amino)-2-fluorophenyl)-7-methyl-5-thia-8-azaspiro[3.5]non-8-ene 5,5-dioxide] |  |  | 38.8 µM | 0.00115 µM | 0.0263 µM | 
C[C@@]1(c2cc(Nc3nccc4cc(C#N)cnc34)ccc2F)CS(=O)(=O)C2(CCC2)C(N)=N1 [Example 117, (R)-8-((3-(9-amino-7-methyl-5,5-dioxido-5-thia-8-azaspiro[3.5]non-8-en-7-yl)-4-fluorophenyl)amino)-1,7-naphthyridine-3-carbonitrile] |  |  | 28.3 µM | 0.00189 µM | 0.0051 µM | 
C[C@@]1(c2cc(Br)ccc2F)CS(=O)(=O)[C@]2(C[C@@H](F)C2)C(N)=N1 [Example 118, (2S,4s,7R)-9-amino-7-(5-bromo-2-fluorophenyl)-2-fluoro-7-methyl-5-thia-8-azaspiro[3.5]non-8-ene 5,5-dioxide] |  |  | 31.1 µM | 4.09 µM | > 15.6 µM | 
C[C@@]1(c2cc(NC(=O)c3ccc(Cl)cn3)ccc2F)CS(=O)(=O)C2(CC(F)(F)C2)C(N)=N1 [Example 120, (R)—N-(3-(9-amino-2,2-difluoro-7-methyl-5,5-dioxido-5-thia-8-azaspiro[3.5]non-8-en-7-yl)-4-fluorophenyl)-5-chloropicolinamide] | 0.0013 µM |  | 148 µM |  |  | 0.0272 µM
Cc1cc(OC(F)F)cnc1C(=O)Nc1ccc(F)c([C@]2(C)CS(=O)(=O)C3(CCC3)C(N)=N2)c1 [Example 121, (R)—N-(3-(9-amino-7-methyl-5,5-dioxido-5-thia-8-azaspiro[3.5]non-8-en-7-yl)-4-fluorophenyl)-5-(difluoromethoxy)-3-methylpicolinamide] | 0.00311 µM |  | 67.5 µM |  |  | 0.0074 µM
Cc1cc(C(F)F)cnc1C(=O)Nc1ccc(F)c([C@]2(C)CS(=O)(=O)C3(CCC3)C(N)=N2)c1 [Example 123, (R)—N-(3-(9-amino-7-methyl-5,5-dioxido-5-thia-8-azaspiro[3.5]non-8-en-7-yl)-4-fluorophenyl)-5-(difluoromethyl)-3-methylpicolinamide] | 0.00457 µM |  | 150 µM |  |  | 0.0063 µM
Cc1cc(Cl)cnc1C(=O)Nc1ccc(F)c([C@]2(C)CS(=O)(=O)C3(CC(F)(F)C3)C(N)=N2)c1 [Example 124, (R)—N-(3-(9-amino-2,2-difluoro-7-methyl-5,5-dioxido-5-thia-8-azaspiro[3.5]non-8-en-7-yl)-4-fluorophenyl)-5-chloro-3-methylpicolinamide] | < 0.002 µM |  | 96.3 µM |  |  | 0.0246 µM
C[C@@]1(c2cc(NC(=O)c3ccc(Cl)cn3)ccc2F)CS(=O)(=O)[C@]2(C[C@@H](F)C2)C(N)=N1 [Example 125, N-(3-((2S,4s,7R)-9-amino-2-fluoro-7-methyl-5,5-dioxido-5-thia-8-azaspiro[3.5]non-8-en-7-yl)-4-fluorophenyl)-5-chloropicolinamide] | 0.001 µM |  | 42.8 µM |  |  | 0.0107 µM
Cc1cc(OC(F)F)cnc1C(=O)Nc1ccc(F)c([C@]2(C)CS(=O)(=O)C3(CC(F)(F)C3)C(N)=N2)c1 [Example 126, (R)—N-(3-(9-amino-2,2-difluoro-7-methyl-5,5-dioxido-5-thia-8-azaspiro[3.5]non-8-en-7-yl)-4-fluorophenyl)-5-(difluoromethoxy)-3-methylpicolinamide] | 0.00376 µM |  | 45.6 µM |  |  | 0.0177 µM
COc1cnc2c(Nc3ccc(F)c([C@]4(C)CS(=O)(=O)C5(CC(F)(F)C5)C(N)=N4)c3)nccc2n1 [Example 128, (R)-9-amino-2,2-difluro-7-(2-fluoro-5-((2-methoxypyrido[3,4b]pyrazin-5-yl)amino)phenyl)-7-methyl-5-thia-8-azaspiro[3.5]non-8-ene 5,5-dioxide] |  |  | 330 µM | 0.0259 µM | 0.199 µM | 
C[C@]1(c2cc(NC(=O)c3ccc(Cl)cn3)ccc2F)N=C(N)C2(CCC2)S(=O)(=O)[C@@H]1F [Example 131, N-(3-((6S,7R)-9-amino-6-fluoro-7-methyl-5,5-dioxido-5-thia-8-azaspiro[3.5]non-8-en-7-yl)-4-fluorophenyl)-5-chloropicolinamide] | 0.0016 µM |  | 162 µM |  |  | 0.00901 µM

The next lines start with the values.

IC50 [1] | IC50 ([2]; Aβ40, 24 h incubation) | IC50 [3] | IC50 ([1]; average IC50, enzyme assay) | IC50 ([2]; average IC50, cell assay) | IC50 [2] | SMILES
0.135 µM | 5.04 µM | 56.3 µM |  |  |  | CC1(C)C(N)=N[C@](C)(c2cc(Oc3cc(F)cc(C(F)(F)F)c3)ccc2F)CS1(=O)=O [Example 98, (R)-5-amino-3-(2-fluoro-5-(3-fluoro-5-(trifluoromethyl)phenoxy)phenyl)-3,6,6-trimethyl-3,6-dihydro-2H-1,4-thiazine 1,1-dioxide]
1.55 µM | > 10 µM | 17.7 µM |  |  |  | CCc1cc(Oc2ccc(F)c([C@]3(C)CS(=O)(=O)C(C)(C)C(N)=N3)c2)ccc1Cl [Example 100, (R)-5-amino-3-(5-(4-chloro-3-ethylphenoxy)-2-fluorophenyl)-3,6,6-trimethyl-3,6-dihydro-2H-1,4-thiazine 1,1-dioxide]
15.2 µM | > 10 µM | 194 µM |  |  |  | COc1ccc(C)cc1Oc1ccc(F)c([C@]2(C)CS(=O)(=O)C(C)(C)C(N)=N2)c1 [Example 101, (R)-5-amino-3-(2-fluoro-5-(2-methoxy-5-methylphenoxy)phenyl)-3,6,6-trimethyl-3,6-dihydro-2H-1,4-thiazine 1,1-dioxide]
0.119 µM | 0.213 µM | 246 µM |  |  |  | CC1(C)C(N)=N[C@](C)(c2cc(Oc3ccccn3)ccc2F)CS1(=O)=O [Example 103, (R)-5-amino-3-(2-fluoro-5-(pyridin-2-yloxy)phenyl)-3,6,6-trimethyl-3,6-dihydro-2H-1,4-thiazine 1,1-dioxide]
 |  | 358 µM | 0.00154 µM | 0.0052 µM |  | CC1(C)C(N)=N[C@](C)(c2cc(Nc3ncnc4cc(OCC5CC5)cnc34)ccc2F)CS1(=O)=O [Example 104, (R)-5-amino-3-(5-((7-(cyclopropylmethoxy)pyrido[3,2-d]pyrimidin-4-yl)amino)-2-fluorophenyl)-3,6,6-trimethyl-3,6-dihydro-2H-1,4-thiazine 1,1-dioxide]
 |  | 145 µM | 0.184 µM | 0.742 µM |  | Cc1nc2c(Nc3ccc(F)c([C@]4(C)CS(=O)(=O)C(C)(C)C(N)=N4)c3)cccc2s1 [Example 105, (R)-5-amino-3-(2-fluoro-5-((2-methylbenzo[d]thiazol-4-yl)amino)phenyl)-3,6,6-trimethyl-3,6-dihydro-2H-1,4-thiazine 1,1-dioxide]
 |  | 12.2 µM | 0.208 µM | 0.36 µM |  | CC1(C)C(N)=N[C@](C)(c2cc(NCc3c(Cl)cnn3CC(F)(F)F)ccc2F)CS1(=O)=O [Example 109, (R)-5-amino-3-(5-(((4-chloro-1-(2,2,2-trifluoroethyl)-1H-pyrazol-5-yl)methyl)amino)-2-fluorophenyl)-3,6,6-trimethyl-3,6-dihydro-2H-1,4-thiazine 1,1-dioxide]
